US4153709A, “N-Heterocyclic ureas as immune regulants” (Eli Lilly and Company, priority 1977, dated 1979)
Like-named read-outs stand apart in the source and are kept apart here.

Assays:
[1] = test system: Salmonella typhimurium G46 missense histidine-auxotroph; assay type: cell-based
Protocol: Compounds found active in the qualitative test were further tested. The culture to be tested was grown to stationary phase in tryptone yeast broth and then diluted to a viable count of about 9×10^7 organisms per milliliter.
Eleven log4 dilutions of the test compound were made covering a range that would allow survival of nonlethal mutants. The dilutions were made in Spizizen's minimal media with minute amounts of histidine and biotin (20 nM) each in […]. tubes. Each tube contained 3 ml. after dilution. Replicate 1 ml. aliquots of test organism were added to each tube including six "0" drug tubes. Final drug concentrations were calculated from 4-ml. volumes (3 ml. drug dilution +1 ml. test organism). Two of the "0" drug tubes were immediately plated at 10° dilution in minimal medium and 10^-5, 10^-6, 10^-7 dilutions in medium containing excess histidine (40 mcg/ml.) Spontaneous revertants (histidine+) were detected in the 10° dilution. Mutable population (histidine-) were detected in the 10^-5, 10^-6, and 10^-7 dilutions. All remaining dilutions were incubated in a Dubonoff shaker at 37° C. for 4 hr., then iced at 4° C. […] A 1-ml. aliquot from each "0" control was also plated at 10^-6, 10^-7, and 10^-8 dilutions in media with excess histidine to detect growth of mutable population (histidine-); normally there are 3-4 generations of the mutable population. All minimal media plates were counted. A dose response increase in revertants above spontaneous background indicated mutagenic potential of a test compound. […] Lethality has occurred to both populations, histidine+ and histidine-, at the same compound levels in all drugs tested to date.
The results are recorded as mutants test/mutants control.

[2] = test system: Salmonella typhimurium G46 missense histidine-auxotroph; test: Host mediated assay (in vivo mutagenicity), G46 indicator (Table 22); set-up: species or system Salmonella typhimurium in Cox white Swiss male mice
Protocol: Cox white Swiss male mice 25-30 grams were used in all in vivo tests.
A. Drug Administration: Appropriate solvents were used where applicable with a solvent control run within each test. […] The organisms were grown to stationary phase, then diluted with normal saline to give an inoculum near 1×10^8 organisms per milliliter. The abdominal area of the drug-treated mouse was swabbed with alcohol and two milliliters of bacterial culture were injected into the abdominal cavity of the mouse. The mice were returned to their cages for 3-4 hours.
C. Autopsy and Recovery: The mice were sacrificed individually by cervical dislocation prior to each autopsy. The abdominal areas were soaked with ethanol. The peritoneum was bared and 2.5 ml. of sterile normal saline was injected into the peritoneal cavity using a sterile (3-ml. plastic syringe with a 20-gauge needle. After insertion, the needle is turned bevel up and the saline was expelled into the cavity; while the needle remains through the peritoneum, keeping the point of the needle in sight pressed against the peritoneal wall, the abdomen of the mouse was massaged to mix contents. The saline wash was removed from the abdominal cavity back into the syringe. The needle was removed and the contents expelled into an appropriately marked tube and iced 4° C.
D. Dilution and Plating: One-ml. samples were plated at 10° dilution on all mice to determine revertants (histidine+).
A one-milliliter sample from the untreated dilutions from control animals is plated 10^-6, 10^-7, and 10^-8 dilutions with excess histidine to determine mutable population (histidine-).

[3] = test system: Salmonella typhimurium G46 missense histidine-auxotroph; test: Qualitative in vitro prescreen for mutagenicity, G46 indicator (Table 22); settings: 200 mcg disc
Text: Filter paper discs 1/4" were impregnated with 200 mcg of test compound using either H2 O or DMSO as solvent. The discs were placed on Petri dishes containing minimal media which had been individually seeded with one of the twelve tester strains. […] A uniform circle of colonies appear around the pad when a compound with mutagenic potential is present. The test compound forms a concentration gradient as it diffuses from the pad. Occasionally, there is a clear ring in close proximity to the pad surrounded by a uniform circle of revertant colonies which indicates a lethal mutation at high concentration of compound and nonlethal mutation at lesser concentration. A single pad thus allows one to test a compound over a wide range of concentrations. Histidine+ colonies were developed enough to read after 48 hr. incubation at 37° C. The plates were read as follows:
A. background zone, if present, is measured in millimeters, if not, a negative is recorded (-).
B. mutant zone is measured in millimiters, if present; if not, a negative (-) is recorded.
C. the mutation frequency can be estimated from density of mutant colonies as follows:
1. Low frequency--few colonies
2. Moderate frequency--many colonies
3. High frequency--dense ring of colonies
4. No colonies recorded (-)

[4] = test system: antibody to sheep red blood cells; test: 75 percent reduction of control antibody titer in mice by subcutaneous, percutaneous and oral routes (Table 16); assay type: in vivo, male Swiss mice; settings: Mus musculus, Erythrocyte, × 10 daily doses commencing 3 days before antigen i.v.
Protocol: Subcutaneous, percutaneous, and oral activity have been achieved as indicated in Table 16 which follows employing representative compounds from the above entitled application. […] Except as indicated, the tests were performed using groups of five 20-gram male Swiss mice injected with 5×10^7 sheep red blood cells intravenously for each drug level. Ten (daily) administrations of drug were made commencing three days prior to red blood cell injection. On the day following the final treatment (7 days after red blood cell injection) the animals were bled by cardiac puncture, the sera from each five-mouse-group were pooled, and antibody titers of these serum pools and corresponding serum pools from control (untreated) mouse groups were determined. The results are expressed as the minimum drug dose effecting 75 percent reduction of control antibody titer: […]

[5] = test system: graft versus host reaction; test: Graft versus host (GVH) reaction, spleen weight (Tables 20, 21); assay type: in vivo, mice (C57BL donors, F1 hybrid C57BL×C3H recipients)
Protocol: In this determination, […] (C57BL) mouse spleen cells are injected into mice of an F1 hybrid strain (C57BL×C3H). […] The injected cells, however, mount a reaction to the recipient's tissues due to the foreign C3H-derived antigens. As a consequence, the recipient's spleen becomes enlarged. Immunosuppressive therapy prevents or reduces this enlargement. Thus, spleen weights provide a measure of the GVH reaction and its reduction under immunosuppression.
Treated and GVH control animals receive an intraperitoneal injection of 1.2×10^9 splenic lymphocytes from the C57 donors. Spleens are weighed ten days later. Spleen weights derived from groups of recipient mice receiving genetically homologous, i.e., syngeneic cells (C57BL×C3H) provide normal control values for calculating percent inhibition in drug-treated groups. For example, mice given 13 daily topical doses of 1-(4,5,6,7-tetra-hydro-2-benzothiazolyl)-3-phenyl urea show a 62% reduction in GVH reaction relative to controls, as set forth in Table 20.
Using this procedure, three compounds from the above useful in the processes of this invention have been compared with several reference immunosuppressive drugs. Treatment levels defining the 50 percent inhibitory dose have been determined.

neoplasms in NZBxW mice = settings: cited from earlier work
[6] = test system: antibody response to sheep blood cells (hemaglutination titer); test: Immune regulating test: suppression of hemaglutination titer by 4-fold factor in mice (i.p. drug, i.p. sheep blood cells), Tables 1-15; assay type: in vivo, Swiss mice; settings: Mus musculus, ip, 192 h, × 3, intraperitoneal, minimum dose to suppress the hemaglutination titer by a 4-fold factor, 8 days after antigen, read-out: Immuno-Suppressant ED4-Fold
Procedure, shortened: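 Groups of five 20-gram Swiss mice received compound i.p. and sheep blood cell antigen i.p.; sera pooled per group eight days after antigen. Hemagglutination titers of pooled sera compared with controls; value is the minimum dose suppressing titer 4-fold versus control.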

[7] = test system: antibody to the sheep red blood cell antigen; test: Antibody response to sheep red blood cells in marmosets, injected drug; assay type: in vivo; settings: 25 mg/kg daily for three days
Protocol: In order to determine if the compounds disclosed herein had immunoalterant activity in a primate species, representative numbers of the series were tested in marmosets. 1-(2-Fluorophenyl)-3-(6-methoxy-2-benzothiazolyl) urea was injected in 25 mg/kg doses daily for three days into five marmosets. A similar group of five untreated marmosets was reserved as a control series. On the day following the third treatment, all animals received intraperitoneal injections of antigen (1×10^9 sheep red blood cells). On the 7th day following antigen injection, serum levels of antibody to the sheep red blood cell antigen were determined.

[8] = 300 mg/kg, s.c., MT/MC of 3 would indicate mutagenic potential
[9] = oral, read-out: Lowest Dose Producing 75% Immunosuppression, Oral
[10] = percutaneous, read-out: Lowest Dose Producing 75% Immunosuppression, Percutaneous

## CN(N=O)C(=O)N[C@H]1C(O)O[C@H](CO)[C@@H](O)[C@@H]1O (stereo partly shown) [STREPTOZOTOCIN]
[1]; .11 mcg/ml
  IN VITRO QUANTITATIVE MT/MC: 6750
[2]; 3 mg/kg, s.c.
  IN VIVO mutants test/mutants control: 2782
[2]; 30 mg/kg, s.c.
  IN VIVO mutants test/mutants control: 444
[2]; .03 mg/kg, s.c.
  IN VIVO mutants test/mutants control: 3.35
[2]; .3 mg/kg, s.c.
  IN VIVO mutants test/mutants control: 278
[3]
  IN VITRO QUALITATIVE FREQ (mutation frequency): HIGH

## CC(=O)Oc1ccccc1C(=O)O [ASA, Acetylsalicylic Acid]
[1]; 750 mcg/ml
  IN VITRO QUANTITATIVE MT/MC: .58
[2]; 30 mg/kg, oral gavage
  IN VIVO mutants test/mutants control: 1.11
[2]; 300 mg/kg, oral gavage
  IN VIVO mutants test/mutants control: 1.06
[3]
  IN VITRO QUALITATIVE ACTIVITY: N

## C1CN1c1nc(N2CC2)nc(N2CC2)n1 [TEM, trimethylenemelamine]
[1]; 180 mcg/ml
  IN VITRO QUANTITATIVE MT/MC: 24
[2]; 3 mg/kg, s.c.
  IN VIVO mutants test/mutants control: 13
[2]; 30 mg/kg, s.c.
  IN VIVO mutants test/mutants control: 27
[2]; [8]
  IN VIVO mutants test/mutants control: 13
[2]; .3 mg/kg, s.c.
  IN VIVO mutants test/mutants control: 3.2
[3]
  IN VITRO QUALITATIVE FREQ (mutation frequency): MEDIUM

## Cn1cnc([N+](=O)[O-])c1Sc1ncnc2nc[nH]c12 [Azathioprine, reference compound]
[4]; sc, subcutaneous, read-out: Lowest Dose Producing 75% Immunosuppression, Subcutaneous
  minimal effective dose: 50 to 100 mg/kg
[4]; [9]
  minimal effective dose: 50 mg/kg
[4]; [10]
  minimal effective dose: 100 mg/kg
[5]; 5 mg/kg × 13, s.c.
  Percent GVH Inhibition: 43%
[5]; 10 mg/kg × 13, s.c.
  Percent GVH Inhibition: 61%
[2]; high levels
  mutagenic potential in the host-mediated system: POSSIBLE MUTAGENIC POTENTIAL
Neoplasms in NZBxW mice; Casey, New Zealand Medical Journal 74,290 (1973), control 0 percent
  increase in neoplasms: 58%

## O=P1(N(CCCl)CCCl)NCCCO1 (stereo not shown) [Cyclophosphamide, reference compound]
[4]; [9]
  minimal effective dose: 25 mg/kg
[4]; [10]
  minimal effective dose: 25 mg/kg
[5]; 6.25 mg/kg × 13, s.c.
  Percent GVH Inhibition: 32%
[5]; 12.5 mg/kg × 13, s.c.
  Percent GVH Inhibition: 53%
Neoplasms in NZBxW mice; Walker and Bole, J. Lab. Clin. Med. 82,619 (1972), control 5 percent
  incidence of neoplasms: 100%

## COc1ccc2nc(NC(=O)Nc3ccccc3F)sc2c1 [Table 11: o-fluorophenyl, 6-CH3 O, S, 1-(2-Fluorophenyl)-3-(6-methoxy-2-benzothiazolyl) urea]
[6]
  minimal effective dose: < 3.1 mg/kg
[7]; injected, five marmosets, 7th day following antigen
  treated animals showing detectable antibody: only one of the treated animals
[7]; controls titers from 1-10 to 1-80
  antibody titer of the responding treated animal: 1-10

## CN(C)N=O [DMNA, N-nitrosodimethylamine]
[1]; 750 mcg/ml
  IN VITRO QUANTITATIVE MT/MC: .33
[2]; 3 mg/kg, s.c.
  IN VIVO mutants test/mutants control: 1.16
[2]; 30 mg/kg, s.c.
  IN VIVO mutants test/mutants control: 43.6
[2]; [8]
  IN VIVO mutants test/mutants control: 620
[2]; mouse, in vivo
  requirement of host mediation for mutagenic potential: requiring host-mediation to demonstrate mutagenic potential
[3]
  IN VITRO QUALITATIVE ACTIVITY: N
